The source made the active and inactive calls. No cut-off for these calls is given here.
Assays:
RAW264.7 [1] = assay: Anti-inflammatory activity in mouse RAW264.7 cells assessed as inhibition of LPS-induced TNF-alpha production at 5 uM preincubated for 1 hr followed by LPS addition and measured after 24 hrs by ELISA relative to control; type: functional; design: scale not given: the % may be the effect or the level left; conditions: time 25 hrs
[2] = Acute toxicity in ICR mouse assessed as change in white blood cell count in bone marrow at 1500 mg/kg, po administered daily for 7 days; type: organism-based; conditions: in vivo, 168 h, time 7 day
[3] = Oral bioavailability in male Sprague-Dawley rat at 10 mg/kg measured at 5 to 1440 mins by LC-MS/MS analysis; type: ADME, organism-based; conditions: in vivo, time 5-1440 min
Mus musculus [4] = assay: Anti-inflammatory activity in DSS-induced ulcerative colitis male C57BL/6 mouse model assessed as reduction in Cathepsin C level in colon at 60 mg/kg administered via gavage for 10 days; type: functional; design: scale not given: the % may be the effect or the level left; conditions: time 10 day
[5] = biological target: T1, Neutrophil elastase (Mus musculus) (UniProt Q3UP87); assay: In vivo inhibition of neutrophil elastase in C57BL/6 mouse assessed as reduction in neutrophil elastase activity in blood administered orally once daily for 6 days by fluorescence based microplate reader; type: functional, organism-based; conditions: dose 5-30 mg/kg, route po, time 6.0 day
T1 sequence (whole entry): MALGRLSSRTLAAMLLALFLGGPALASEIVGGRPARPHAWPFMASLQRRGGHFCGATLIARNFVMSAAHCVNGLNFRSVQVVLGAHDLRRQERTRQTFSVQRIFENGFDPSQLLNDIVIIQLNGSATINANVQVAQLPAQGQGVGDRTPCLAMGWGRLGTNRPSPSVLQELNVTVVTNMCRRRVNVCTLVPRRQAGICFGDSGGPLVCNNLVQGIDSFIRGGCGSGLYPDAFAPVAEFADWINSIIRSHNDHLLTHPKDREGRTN

Mus musculus [6] = assay: Anti-inflammatory activity in DSS-induced ulcerative colitis male C57BL/6 mouse model assessed as reduction in proteinase 3 level in serum at 60 mg/kg administered via gavage for 10 days relative to control; type: functional; design: scale not given: the % may be the effect or the level left
[7] = biological target: T2, Cathepsin G (Mus musculus) (UniProt P28293); assay: In vivo inhibition of Cathepsin G in C57BL/6 mouse assessed as reduction in cathepsin G activity in blood at 30 mg/kg, po administered once daily for 6 days by fluorescence based microplate reader relative to control; type: functional, organism-based; conditions: time 6.0 day
T2 sequence (whole entry): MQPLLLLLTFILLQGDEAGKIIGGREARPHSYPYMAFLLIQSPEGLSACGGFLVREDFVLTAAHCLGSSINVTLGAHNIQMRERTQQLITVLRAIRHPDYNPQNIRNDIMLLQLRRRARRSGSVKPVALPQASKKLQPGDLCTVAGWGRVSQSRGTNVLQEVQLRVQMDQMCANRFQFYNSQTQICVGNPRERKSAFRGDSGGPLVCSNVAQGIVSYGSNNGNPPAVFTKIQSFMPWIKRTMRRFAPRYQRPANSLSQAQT

Dipeptidyl peptidase 1 = Dipeptidyl peptidase 1 (Homo sapiens, UniProt P53634); assay: Induction of thermal stabilization of Cathepsin C in human U-937 cell incubated for 1 hrs at 37 to 65 degreeC by CETSA based Western blot analysis; conditions: dose 10-20 µM
Mus musculus [8] = assay: Anti-inflammatory activity in DSS-induced ulcerative colitis male C57BL/6 mouse model assessed as reduction in IL-1 beta expression in colon administered via gavage for 10 days by ELISA; type: functional, organism-based; conditions: dose 15-60 mg/kg, time 10.0 day
[9] = biological target: T2, Cathepsin G (Mus musculus); assay: Induction of Cathepsin G degradation in C57BL/6 mouse bone marrow cells assessed as residual activity at 10 uM incubated for 48 hrs by Western blot analysis relative to control; type: cell-based; conditions: Bone marrow cell
RAW264.7 [10] = assay: Anti-inflammatory activity in LPS-stimulated mouse RAW264.7 cells assessed as reduction in IL-1 beta production incubated for 24 hrs by ELISA; type: functional, cell-based; conditions: dose 0.62-5 µM
[11] = biological target: T3, Dipeptidyl peptidase 1 (Mus musculus) (UniProt P97821); assay: In vivo inhibition of Cathepsin C in C57BL/6 mouse assessed as reduction in cathepsin C activity in bone marrow at 30 mg/kg, po administered once daily for 6 days by fluorescence based microplate reader relative to control; type: functional, organism-based; conditions: time 6.0 day
T3 sequence (whole entry): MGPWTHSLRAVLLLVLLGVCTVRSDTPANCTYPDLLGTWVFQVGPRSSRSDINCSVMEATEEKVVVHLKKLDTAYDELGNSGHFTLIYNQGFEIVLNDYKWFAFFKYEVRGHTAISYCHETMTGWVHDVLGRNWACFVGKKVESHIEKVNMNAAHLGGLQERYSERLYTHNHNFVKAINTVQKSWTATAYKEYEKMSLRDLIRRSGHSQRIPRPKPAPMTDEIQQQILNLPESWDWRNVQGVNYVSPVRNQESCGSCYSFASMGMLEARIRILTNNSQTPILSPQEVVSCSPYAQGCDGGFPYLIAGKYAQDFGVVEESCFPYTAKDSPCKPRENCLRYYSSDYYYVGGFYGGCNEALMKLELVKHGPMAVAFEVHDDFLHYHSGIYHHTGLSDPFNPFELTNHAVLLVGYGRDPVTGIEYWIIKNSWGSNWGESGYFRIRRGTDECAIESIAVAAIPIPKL

Mus musculus [12] = assay: Anti-inflammatory activity in DSS-induced ulcerative colitis male C57BL/6 mouse model assessed as increase in IL-10 expression in colon administered via gavage for 10 days by ELISA; type: functional, organism-based; conditions: dose 15-60 mg/kg, time 10.0 day
Mus musculus [13] = assay: Anti-inflammatory activity in DSS-induced ulcerative colitis male C57BL/6 mouse model assessed as reduction in TNF-alpha expression in colon administered via gavage for 10 days by ELISA; type: functional, organism-based; conditions: dose 15-60 mg/kg, time 10.0 day
Mus musculus [14] = assay: Anti-inflammatory activity in DSS-induced ulcerative colitis male C57BL/6 mouse model assessed as reduction in cathepsin G level in serum at 15 to 30 mg/kg administered via gavage for 10 days; type: functional, organism-based; conditions: dose 15-30 mg/kg, time 10.0 day
RAW264.7 [15] = assay: Anti-inflammatory activity in mouse RAW264.7 cells assessed as inhibition of LPS-induced IL-1beta production at 5 uM preincubated for 1 hr followed by LPS addition and measured after 24 hrs by ELISA relative to control; type: functional; design: scale not given: the % may be the effect or the level left; conditions: time 25 hrs
Mus musculus [16] = assay: Anti-inflammatory activity in DSS-induced ulcerative colitis male C57BL/6 mouse model assessed as reduction in neutrophil elastase level in colon at 60 mg/kg administered via gavage for 10 days relative to control; type: functional; design: scale not given: the % may be the effect or the level left; conditions: time 10 day
[17] = biological target: T2, Cathepsin G (Mus musculus); assay: In vivo inhibition of Cathepsin G in C57BL/6 mouse assessed as reduction in cathepsin G activity in blood administered orally once daily for 6 days by fluorescence based microplate reader; type: functional, organism-based; conditions: dose 5-30 mg/kg, route po, time 6.0 day
Mus musculus [18] = assay: Anti-inflammatory activity in DSS-induced ulcerative colitis male C57BL/6 mouse model assessed as increase in IL-10 expression in serum administered via gavage for 10 days by ELISA; type: functional, organism-based; conditions: dose 15-60 mg/kg, time 10.0 day
Mus musculus [19] = assay: Anti-inflammatory activity in DSS-induced ulcerative colitis male C57BL/6 mouse model assessed as increase in body weight at 60 mg/kg administered via gavage for 10 days; type: functional, organism-based; conditions: time 10.0 day
Mus musculus [20] = assay: Anti-inflammatory activity in DSS-induced ulcerative colitis C57BL/6 mouse model assessed as effect on inflammatory factors at 60 mg/kg, administered twice daily; type: functional, organism-based
[21] = biological target: Voltage-gated inwardly rectifying potassium channel KCNH2 (Homo sapiens, UniProt Q12809); assay: Inhibition of hERG; type: toxicity
Sequence of Voltage-gated inwardly rectifying potassium channel KCNH2 (Q12809 whole entry): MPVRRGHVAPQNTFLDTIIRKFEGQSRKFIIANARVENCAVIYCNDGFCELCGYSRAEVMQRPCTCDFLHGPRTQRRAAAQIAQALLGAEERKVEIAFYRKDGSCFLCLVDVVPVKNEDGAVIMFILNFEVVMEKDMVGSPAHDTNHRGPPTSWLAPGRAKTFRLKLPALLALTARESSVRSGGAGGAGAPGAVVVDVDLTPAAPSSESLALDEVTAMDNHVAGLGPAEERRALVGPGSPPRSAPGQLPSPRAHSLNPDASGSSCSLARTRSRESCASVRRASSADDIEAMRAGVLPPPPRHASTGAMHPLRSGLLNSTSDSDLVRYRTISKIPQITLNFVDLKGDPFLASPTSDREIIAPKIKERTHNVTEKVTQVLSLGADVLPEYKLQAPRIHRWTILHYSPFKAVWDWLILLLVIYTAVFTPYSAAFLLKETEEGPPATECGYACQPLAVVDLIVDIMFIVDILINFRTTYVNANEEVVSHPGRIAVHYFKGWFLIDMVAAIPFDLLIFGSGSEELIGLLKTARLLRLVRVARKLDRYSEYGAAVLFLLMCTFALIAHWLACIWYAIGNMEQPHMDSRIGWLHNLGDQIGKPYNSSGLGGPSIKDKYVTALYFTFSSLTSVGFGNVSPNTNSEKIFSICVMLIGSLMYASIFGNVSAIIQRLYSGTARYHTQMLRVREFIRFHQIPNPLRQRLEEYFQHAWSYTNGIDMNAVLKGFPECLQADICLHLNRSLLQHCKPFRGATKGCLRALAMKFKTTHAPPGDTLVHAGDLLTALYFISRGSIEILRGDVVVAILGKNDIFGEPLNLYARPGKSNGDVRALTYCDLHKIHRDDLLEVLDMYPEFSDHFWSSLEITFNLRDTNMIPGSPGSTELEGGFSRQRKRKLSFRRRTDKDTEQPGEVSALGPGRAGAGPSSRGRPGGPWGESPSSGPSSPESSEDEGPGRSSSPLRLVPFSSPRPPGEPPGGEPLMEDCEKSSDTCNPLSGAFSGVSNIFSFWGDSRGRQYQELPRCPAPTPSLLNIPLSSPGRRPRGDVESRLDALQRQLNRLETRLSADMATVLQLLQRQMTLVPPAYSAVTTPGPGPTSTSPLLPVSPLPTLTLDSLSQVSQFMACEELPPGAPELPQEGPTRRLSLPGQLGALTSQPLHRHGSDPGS

Sequence of Dipeptidyl peptidase 1 (P53634 25-134 limits assumed): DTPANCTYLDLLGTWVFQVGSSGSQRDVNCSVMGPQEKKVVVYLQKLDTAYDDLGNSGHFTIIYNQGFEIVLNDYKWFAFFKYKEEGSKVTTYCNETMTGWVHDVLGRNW
Sequence of Dipeptidyl peptidase 1 (P53634 231-394 limits assumed): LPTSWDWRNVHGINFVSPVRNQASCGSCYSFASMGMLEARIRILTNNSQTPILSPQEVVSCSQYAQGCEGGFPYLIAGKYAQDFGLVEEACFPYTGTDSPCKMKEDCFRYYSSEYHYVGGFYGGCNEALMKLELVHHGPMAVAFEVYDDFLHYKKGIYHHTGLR
Sequence of Dipeptidyl peptidase 1 (P53634 395-463 limits assumed): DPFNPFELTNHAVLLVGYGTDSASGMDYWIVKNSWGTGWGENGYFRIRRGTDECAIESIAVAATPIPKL

## O=C1Nc2c(cccc2-c2ccc(NC3CCOCC3)cc2)/C1=C/c1ccnc2ccccc12
RAW264.7 [1]
  Activity: 83.6%
[2]
  Activity: Non-toxic
[3]
  F: 29.05%
Mus musculus [4]
  Activity: 45%
[5]
  inhibition: Dose-dependent-effect
Mus musculus [6]; time 10 day
  Activity: 54%
Mus musculus [6]; time 10.0 day
  Activity: Active
[7]
  inhibition: 39.5%
Dipeptidyl peptidase 1
  Activity: Dose-dependent-effect; Significant Thermal Stability Observed
Mus musculus [8]
  Activity: Dose-dependent-effect; Significant Reduction Observed In High Dose Group
[9]
  Activity: 17.3%
RAW264.7 [10]
  Activity: Dose-dependent-effect
[11]
  inhibition: 36.5%
Mus musculus [12]
  Activity: Dose-dependent-effect; Significant Increase Observed In High Dose Group
Mus musculus [13]
  Activity: Active
Mus musculus [14]
  Activity: inactive
RAW264.7 [15]
  Activity: 90.5%
Mus musculus [16]
  Activity: 50%
[17]
  inhibition: Dose-dependent-effect
Mus musculus [18]
  Activity: Dose-dependent-effect; Significant Increase Observed In High Dose Group
Mus musculus [19]
  Activity: Active
Mus musculus [20]
  Activity: Active
[21]
  IC50: > 30 µM

From ChEMBL document CHEMBL6092168, “Identification of novel indolinone derivatives as CTSC inhibitors to treat inflammatory bowel disease by modulating inflammatory factors” (Eur J Med Chem, 2024)
